Values joined by “and” are separate entries in the source; they are usually repeats but may differ in a detail not shown here. Equal values may be shown once.
Assays:
Assay in all cases: [3H]PDBu displacement from recombinant PKC isozyme (baculovirus)
Type in all cases: binding
Conditions in all cases: [3H]PDBu competition
[1] = molecular target: T1, ε-PKC (Homo sapiens, UniProt Q02156)
T1 sequence (Q02156 1-737): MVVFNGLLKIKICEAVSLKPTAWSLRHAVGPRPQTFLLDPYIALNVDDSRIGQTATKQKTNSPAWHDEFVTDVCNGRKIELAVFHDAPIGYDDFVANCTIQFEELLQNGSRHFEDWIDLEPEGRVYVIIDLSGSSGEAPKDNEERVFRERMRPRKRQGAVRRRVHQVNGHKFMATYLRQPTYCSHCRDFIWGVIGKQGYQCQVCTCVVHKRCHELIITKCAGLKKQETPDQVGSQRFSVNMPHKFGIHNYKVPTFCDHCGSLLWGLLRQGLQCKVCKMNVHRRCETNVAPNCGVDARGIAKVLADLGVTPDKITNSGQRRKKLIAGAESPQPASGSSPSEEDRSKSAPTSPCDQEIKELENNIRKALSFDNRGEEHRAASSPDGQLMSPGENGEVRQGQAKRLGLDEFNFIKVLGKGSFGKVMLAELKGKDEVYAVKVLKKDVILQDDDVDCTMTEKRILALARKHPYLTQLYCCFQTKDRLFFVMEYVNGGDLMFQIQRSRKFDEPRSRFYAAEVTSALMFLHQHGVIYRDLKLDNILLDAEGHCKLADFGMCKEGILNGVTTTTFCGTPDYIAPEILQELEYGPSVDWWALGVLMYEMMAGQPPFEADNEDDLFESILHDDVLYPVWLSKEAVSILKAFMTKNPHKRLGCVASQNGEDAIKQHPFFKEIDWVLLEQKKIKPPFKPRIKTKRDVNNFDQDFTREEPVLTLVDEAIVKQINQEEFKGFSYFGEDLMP
Experimental: (§1) The ability of representative compounds of the invention to bind specific isozymes of PKC was determined using an assay (Example 13) in which displacement of [20-^3H]phorbol -12,13-dibutyrate ([^3H]PDBu) from either recombinant PKC isozymes prepared in a Baculovirus system, or unresolved mixture of isozymes of PKC isolated from whole brain extracts, was used. These procedures are described below. […] (See the key that follows)
(§2) Analysis of [20-^3H]phorbol 12,13-dibutyrate binding to PKC. Specific binding of [^3H]PDBu to PKC was carried out as described (Kazanietz, et al., Mol. Pharmacol. 44:298-307 (1993)). [^3H]PDBu (20.0 Ci/mmol) was obtained from New England Nuclear. Phosphatidylserine and bovine […] were obtained from Sigma Chemical Co. Binding was determined in an incubation volume of 250 μl, containing [^3H]PDBu, PKC, 0.05 M Tris-Cl, pH 7.4, 100 μg/ml phosphatidylserine, various concentrations of the ligand being assayed for competition of [^3H]PDBu binding, and bovine […] at 1 mg/ml. In the case of the classical PKCs (α, β, […]) CaCl2 was included at a concentration of 0.1 mM. Liposomes of phosphatidylserine were prepared as follows. The phosphatidylserine solutions were dried down from CHCl3 under a stream of N2. After addition of 0.05 M Tris-Cl, pH 7.4, liposomes were prepared by sonication for 30 sec with the microtip probe of Sonifier Cell Disrupter (Heat Systems-Ultrasonics). [^3H]PDBu was used at a concentration twice the Kd previously determined for the specific receptor. Ligands were assayed over a concentration range of 3 orders of magnitude. Ligands were diluted in 0.05 M Tris-Cl, pH 7.4 containing 1 mg/ml bovine g-globulin. If the compounds were not soluble at the highest concentration used, they were dissolved in organic solvent (CHCl3 or ethanol) and mixed with the phosphatidylserine dissolved in CHCl3. The solvent was removed under a stream of N2.
(§3) Mixed liposomes were then prepared, as described for the preparation of the liposomes of phosphatidylserine alone, by the addition of 0.05 M Tris-Cl, pH 7.4, and sonication for 30 sec with the microtip probe of a Sonifier Cell Disrupter (Heat Systems-Ultrasonics). Incubation was for 5 min at 37° C. The samples were then be cooled to 4° C. for 8 min and 200 μl of 35% polyethylene glycol in 0.05 M Tris-Cl, pH 7.4 (w:w) added. After vigorous mixing, the samples were incubated for 15 min to allow precipitation of the receptor. The precipitate was recovered by centrifugation at 12,000 rpm in a Beckman microcentrifuge at 4° C. A 100 μl aliquot of the supernatant was removed and its radioactivity determined in a Wallac liquid scintillation counter, Model 1409. This value provided a measure of the concentration of unbound [^3H]PDBu. The remainder of the supernatant was removed by aspiration and blotting with absorbent tissue. The tip of the centrifuge tube was cut off and the radioactivity in the pellet measured to determine total bound [^3H]PDBu. Non-specific binding of [^3H]PDBu was measured in the presence of 30 μM non-radioactive PDBu and used to determine an apparent partition coefficient for [^3H]PDBu under these assay conditions.
(§4) Specific binding represents the difference between total binding and the non-specific binding, where the latter value was calculated from the partition coefficient and the measured free [^3H]PDBu concentration in each tube. In each experiment, triplicate determinations were performed at each concentration of competing ligand.

[2] = molecular target: T2, γ-PKC (Homo sapiens, UniProt P05129)
T2 construct: made in house; host or cells: Sf9 cells (baculovirus)
Experimental: as §1, §2, §3, §4

[3] = molecular target: T3, α-PKC (Homo sapiens, UniProt P17252)
T3 construct: made in house; host or cells: Sf9 cells (baculovirus)
Experimental: as §1, §2, §3, §4

Ki [1] | Ki [2] [nM] | Ki [3] [nM] | SMILES
1300 ± 377 nM | 1230 ± 258 | 2980 ± 1040 | CCCCCCCCCCCC(=O)Oc1cc2c(cc1Br)[C@@H]1[C@@H](CO)NC(=O)[C@@H]1[C@]2(C)C(C)C [Compound 5, (3S, 8S, 9S, 10S)-5-bromo-6-dodecanoyloxyl-3-hydroxymethyl-8-isopropyl-8-methyl-3,3a,8,8a-tetrahydro-2H -2-aza-cyclopenta[a]inden-1-one]
> 10000 nM | > 10000 | > 10000 | CCCCCCCCCCCC(=O)Oc1cc2c(cc1C(C)=O)[C@@H]1[C@@H](CO)NC(=O)[C@@H]1[C@@]2(C)C(C)C [Compound 11, (3S, 8R, 9S, 10S)-5-acetyl-6-dodecanoyloxyl-3-hydroxymethyl-8-isopropyl-8-methyl-3,3a,8,8a-tetrahydro-2H -2-aza-cyclopenta[a]inden-1-one]

Second part, the compound before the results:

SMILES | Ki [1] | Ki [2] [nM] | Ki [3] [nM]
CCCCCCCCC#Cc1ccc2c(c1)C(C)(C(C)C)C1C(=O)NC(CO)C21 [Compound 1, (3S, 8R, 9S, 10S)-6-(dec-1′-ynyl)-3-hydroxymethyl-8-isopropyl-8-methyl-3,3a,8,8a-tetrahydro-2H-2-aza-cyclopenta[a]inden-1-one] | 469 nM and 946 nM | 279 ± 50 | 580 ± 214
CCCCCCCCCCCC(=O)Oc1ccc2c(c1)[C@](C)(C(C)C)[C@H]1C(=O)N[C@H](CO)[C@@H]21 [Compound 2, (3S, 8R, 9S, 10S)-6-dodecanoyloxyl-3-hydroxymethyl-8-isopropyl-8-methyl-3,3a,8,8a-tetrahydro-2H -2-aza-cyclopenta[a]inden-1-one] | 515 ± 155 nM | 209 ± 38 | 395 ± 71
CCCCCCCCCCCC(=O)Oc1ccc2c(c1)[C@@](C)(C(C)C)[C@H]1C(=O)N[C@H](CO)[C@@H]21 [Compound 3, (3S, 8S, 9S, 10S)-6-dodecanoyloxyl-3-hydroxymethyl-8-isopropyl-8-methyl-3,3a,8,8a-tetrahydro-2H -2-aza-cyclopenta[a]inden-1-one] | 228 ± 43 nM | 327 ± 65 | 674 ± 249
CCCCCCCCCCCC(=O)Oc1cc2c(cc1C(C)=O)[C@@H]1[C@@H](CO)NC(=O)[C@@H]1[C@]2(C)C(C)C [Compound 4, (3S, 8S, 9S, 10S)-5-acetyl-6-dodecanoyloxyl-3-hydroxymethyl-8-isopropyl-8-methyl-3,3a,8,8a-tetrahydro-2H -2-aza-cyclopenta[a]inden-1-one] | 5100 ± 3110 nM | 3650 ± 1090 | 2250 ± 585

— US20040019018A1, “Rigid pyrrolidone modulators of pkc” (priority 2003, published 2004)
